Assay results taken from US20100267561A1, “HERBICIDAL PYRIDAZINONE DERIVATIVES” (priority 2007, published 2010).

Key:
Assay type in all cases: in vivo
[1] = system: chickweed (Stellaria media); assay: Test B postemergence plant response; conditions: for Plant response rating, Chickweed: Postemergence
Outline: (§1)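 Visual injury score from 0 (none) to 100 (complete control) versus controls, taken 13 to 15 days after treatment in the greenhouse; chemicals applied postemergence, as formulated, to plants of 1- to 4-leaf stage (2 to 18 cm tall); dash denotes no test result.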

[2] = system: canarygrass (Phalaris minor); assay: Test B postemergence plant response; conditions: for Plant response rating, Canarygrass: Postemergence
Outline: as §1

[3] = system: windgrass (Apera spica-venti); assay: Test B postemergence plant response; conditions: for Plant response rating, Windgrass: Postemergence
Outline: as §1

[4] = system: winter barley (Hordeum vulgare); assay: Test B postemergence plant response; conditions: for Plant response rating, Barley: Postemergence, scale 0 to 100, 0 no effect, 100 complete control
Outline: as §1

corn (Zea mays) = assay: Test B pre-/postemergence plant response
Outline: (§2)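 Visual scoring from 0 (no effect) to 100 (complete control) against untreated controls was done 13 to 15 days after greenhouse treatment. Chemicals were formulated in a surfactant-containing non-phytotoxic solvent and applied to soil preemergence or to 1- to 4-leaf (2-18 cm) plants postemergence.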

[5] = system: lambsquarters (Chenopodium album); assay: Test B pre-/postemergence plant response
Outline: as §2

[6] = system: giant foxtail (Setaria faberii); assay: Test B pre-/postemergence plant response
Outline: as §2

[7] = system: morningglory (Ipomoea coccinea); assay: Test B pre-/postemergence plant response
Outline: as §2

[8] = system: velvetleaf (Abutilon theophrasti); assay: Test B pre-/postemergence plant response
Outline: as §2

wild oat (Avena fatua) = assay: Test B pre-/postemergence plant response
Outline: as §2

[9] = system: blackgrass (Alopecurus myosuroides); assay: Test B pre-/postemergence plant response; conditions: for Blackgrass plant response rating: 8 g ai/ha
Outline: as §2

[10] = system: bermudagrass (Cynodon dactylon); assay: Test B pre-/postemergence plant response; conditions: for Bermudagrass plant response rating: 8 g ai/ha
Outline: as §2

[11] = system: yellow nutsedge (Cyperus esculentus); assay: Test B pre-/postemergence plant response
Outline: as §2

[12] = system: eastern black (E.B.) nightshade (Solanum ptycanthum); assay: Test B pre-/postemergence plant response; conditions: Preemergence; for Nightshade, E. B. plant response rating: scale 0 to 100
Outline: as §2

[13] = system: barnyardgrass (Echinochloa crus-galli); assay: Test B flooded paddy test plant response
Outline: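 Rice, umbrella sedge, ducksalad and barnyardgrass at 2-leaf stage; pots flooded to 3 cm, compounds applied into paddy water, depth held throughout. Greenhouse 13 to 15 days, then visual rating vs untreated controls on 0–100 scale (0 no effect, 100 complete control); dash means no test result.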

[14] = 8 g ai/ha, postemergence, 0-100 scale
[15] = 62 g ai/ha, scale 0 to 100, 0 no effect, 100 complete control
[16] = Postemergence, 16 g ai/ha, scale 0 to 100
[17] = Postemergence, 31 g ai/ha, scale 0 to 100
[18] = Postemergence, 62 g ai/ha, scale 0 to 100, 0 no effect, 100 complete control
[19] = Preemergence, 31 g ai/ha, scale 0 to 100 (0 no effect, 100 complete control)
[20] = Preemergence, 62 g ai/ha, 0 to 100 scale, 0 no effect, 100 complete control
[21] = Preemergence, 8 g ai/ha, scale 0 to 100
[22] = Preemergence, 16 g ai/ha, scale 0 to 100
[23] = Preemergence, 16 g ai/ha, scale 0 to 100 (0 no effect, 100 complete control)

Cc1cc(-c2ccc(Cl)cc2)nn1-c1c(OC(=O)OCC(C)C)cnn(C)c1=O [Compound 57]
98: Plant response rating, Corn (corn (Zea mays); [17]) | Plant response rating, Foxtail, Giant [6, 17] | Foxtail, Giant plant response rating [6, 21] | Foxtail, Giant plant response rating [6, 22] | Plant response rating, Oat, Wild (wild oat (Avena fatua); [18]) | Plant response rating, Bermudagrass [10, 17]
60: Plant response rating, Canarygrass [2, 15] | Corn plant response rating (corn (Zea mays); [22]) | Oat, Wild plant response rating (wild oat (Avena fatua); [22])
50: Windgrass plant response rating [3, 14] | Plant response rating, Windgrass ([3]; 16 g ai/ha, scale 0 to 100)
70: Plant response rating, Windgrass [3, 15] | Plant response rating, Oat, Wild (wild oat (Avena fatua); [19])
100: Plant response rating, Corn (corn (Zea mays); [18]) | Plant response rating, Foxtail, Giant [6, 18] | Plant response rating, Foxtail, Giant [6, 19] | Plant response rating, Foxtail, Giant [6, 20] | Plant response rating, Blackgrass [9, 23] | Plant response rating, Blackgrass [9, 19] | Plant response rating, Blackgrass [9, 20] | Plant response rating, Bermudagrass [10, 18] | Bermudagrass plant response rating ([10]; Preemergence, scale 0 to 100 (0 no effect, 100 complete control)) | Plant response rating, Bermudagrass [10, 23] | Plant response rating, Bermudagrass [10, 19] | Plant response rating, Bermudagrass [10, 20]
80: Foxtail, Giant plant response rating [6, 14] | Plant response rating, Oat, Wild (wild oat (Avena fatua); [20]) | Plant response rating, Blackgrass [9, 16] | Plant response rating, Blackgrass [9, 17]
0: Chickweed plant response rating [1, 14] | Plant response rating, Chickweed ([1]; 16 g ai/ha, scale 0 to 100) | Plant response rating, Chickweed ([1]; 31 g ai/ha, scale 0 to 100) | Plant response rating, Chickweed [1, 15] | Canarygrass plant response rating [2, 14] | Plant response rating, Canarygrass ([2]; 16 g ai/ha, scale 0 to 100) | Plant response rating, Canarygrass ([2]; 31 g ai/ha, scale 0 to 100) | Barley plant response rating [4, 14] | Plant response rating, Barley ([4]; 16 g ai/ha) | Plant response rating, Barley ([4]; 31 g ai/ha) | Corn plant response rating (corn (Zea mays); [14]) | Plant response rating, Corn (corn (Zea mays); [16]) | Corn plant response rating (corn (Zea mays); [21]) | Lambsquarters plant response rating [5, 14] | Plant response rating, Lambsquarters [5, 16] | Plant response rating, Lambsquarters [5, 17] | Plant response rating, Lambsquarters [5, 18] | Lambsquarters plant response rating [5, 21] | Lambsquarters plant response rating [5, 22] | Morningglory plant response rating [7, 14] | Plant response rating, Morningglory [7, 16] | Plant response rating, Morningglory [7, 17] | Plant response rating, Morningglory [7, 18] | Plant response rating, Morningglory [7, 19] | Plant response rating, Morningglory [7, 20] | Morningglory plant response rating [7, 21] | Morningglory plant response rating [7, 22] | Velvetleaf plant response rating [8, 14] | Plant response rating, Velvetleaf [8, 16] | Plant response rating, Velvetleaf [8, 17] | Plant response rating, Velvetleaf [8, 18] | Plant response rating, Velvetleaf [8, 19] | Plant response rating, Velvetleaf [8, 20] | Velvetleaf plant response rating [8, 21] | Velvetleaf plant response rating [8, 22] | Oat, Wild plant response rating (wild oat (Avena fatua); [21]) | Nutsedge, Yellow plant response rating [11, 14] | Plant response rating, Nutsedge, Yellow [11, 16] | Plant response rating, Nutsedge, Yellow [11, 17] | Plant response rating, Nutsedge, Yellow [11, 18] | Plant response rating, Nutsedge, Yellow [11, 19] | Plant response rating, Nutsedge, Yellow [11, 20] | Nutsedge, Yellow plant response rating [11, 21] | Nutsedge, Yellow plant response rating [11, 22] | Plant response rating, Nightshade, E. B. ([12]; 31 g ai/ha, scale 0 to 100 (0 no effect, 100 complete control)) | Plant response rating, Nightshade, E. B. ([12]; 62 g ai/ha, 0 to 100 scale, 0 no effect, 100 complete control) | Nightshade, E. B. plant response rating ([12]; 8 g ai/ha) | Nightshade, E. B. plant response rating ([12]; 16 g ai/ha) | Plant response rating, Barnyardgrass ([13]; Flood (flooded paddy test), 62 g ai/ha, scale 0 to 100, 0 no effect, 100 complete control) | Plant response rating, Barnyardgrass ([13]; Flood (flooded paddy test), 125 g ai/ha, scale 0 to 100, 0 no effect, 100 complete control) | Plant response rating, Barnyardgrass ([13]; Flood (flooded paddy test), 250 g ai/ha, scale 0 to 100, 0 no effect, 100 complete control) | Plant response rating, Barnyardgrass ([13]; Flood, 31 g ai/ha, scale 0 to 100)
65: Plant response rating, Lambsquarters [5, 20] | Bermudagrass plant response rating ([10]; postemergence, 0-100 scale)
20: Plant response rating, Lambsquarters [5, 19]
95: Plant response rating, Corn (corn (Zea mays); [20]) | Plant response rating, Foxtail, Giant [6, 16] | Plant response rating, Oat, Wild (wild oat (Avena fatua); [17]) | Plant response rating, Blackgrass [9, 18]
55: Plant response rating, Windgrass ([3]; 31 g ai/ha, scale 0 to 100)
85: Plant response rating, Corn (corn (Zea mays); [19]) | Oat, Wild plant response rating (wild oat (Avena fatua); [14]) | Plant response rating, Oat, Wild (wild oat (Avena fatua); [16]) | Plant response rating, Bermudagrass [10, 16]
40: Plant response rating, Barley ([4]; 62 g ai/ha) | Blackgrass plant response rating ([9]; postemergence, 0-100 scale) | Blackgrass plant response rating ([9]; Preemergence, scale 0 to 100)
